One data set addresses T1, acid ceramidase (Homo sapiens, UniProt Q13510).
T1 construct: Cell lysates overexpressing acid ceramidase were used as the enzyme source; expressed in transfected cells
T1 sequence (Q13510 22-395): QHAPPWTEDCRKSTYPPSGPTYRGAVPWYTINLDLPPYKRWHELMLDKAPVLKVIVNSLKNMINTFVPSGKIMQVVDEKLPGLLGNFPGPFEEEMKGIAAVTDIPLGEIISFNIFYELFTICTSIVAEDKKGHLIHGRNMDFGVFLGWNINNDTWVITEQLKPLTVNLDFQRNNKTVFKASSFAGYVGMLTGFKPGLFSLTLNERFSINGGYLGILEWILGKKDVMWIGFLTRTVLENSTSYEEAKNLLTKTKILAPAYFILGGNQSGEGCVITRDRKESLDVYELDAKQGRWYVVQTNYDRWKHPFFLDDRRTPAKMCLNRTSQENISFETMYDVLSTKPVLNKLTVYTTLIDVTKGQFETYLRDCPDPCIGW
Briefly: Acid ceramidase inhibition, biochemical fluorescent assay with cell lysates overexpressing acid ceramidase, substrate Rbm14-12. The settings on record: substrate Rbm14-12 6.3 μM. In outline: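 Lysate of cells overexpressing acid ceramidase (10 μg protein) preincubated with compound dose series 1 hr at RT in 25 mM NaAC, 100 mM NaCl, pH 4.5, then reacted 1 hr with 6.3 μM Rbm14-12. Stopped with NaIO4/glycine buffer pH 10.6, fluorescence ex360/em446; IC50 by four-parameter fit.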

Data set [1] in a line: Compound solubility in water.
The mark [2] stands for this setting: pH 4.5, 1 hr preincubation at RT.

Converted amounts (≈) assume the structure as drawn. Some results are limits rather than exact numbers.

As for `Cn1c(=O)n(C(=O)NCCc2ccccc2)c2cccnc21` [Example 87, 3-Methyl-2-oxo-N-phenethyl-2,3-dihydro-1H-imidazo[4,5-b]pyridine-1-carboxamide], the IC50 against acid ceramidase (setting [2]) is over 1000 nM. The same compound yielded a solubility in data set [1] of 14.7 µg/mL (≈ 49.6 µM).
The matching figures for `CN1CCC(Oc2cccc3c2ncn3C(=O)NCCc2ccccc2)CC1` [Example 86, 4-((1-Methylpiperidin-4-yl)oxy)-N-phenethyl-1H-benzo[d]imidazole-1-carboxamide]: under 200 nM and 26.5 µg/mL (≈ 70 µM).
The compound `CCCCNC(=O)n1cnc2ccc(N3CCC(N4CCOCC4)CC3)cc21` [Example 101a, N-Butyl-6-(4-morpholinopiperidin-1-yl)-1H-benzo[d]imidazole-1-carboxamide] showed an IC50 against acid ceramidase (setting [2]) of under 200 nM. The solubility in data set [1] was 26.7 µg/mL (≈ 69.3 µM).
Turning to `CN(C)CC1CN(c2cccc3c2ncn3C(=O)NCC#Cc2ccccc2)C1` [Example 331, 4-(3-((Dimethylamino)methyl)azetidin-1-yl)-N-(3-phenylprop-2-yn-1-yl)-1H-benzo[d]imidazole-1-carboxamide], the concentration for half-maximal inhibition (IC50) against acid ceramidase (pH 4.5) is under 200 nM. Further, in data set [1], the concentration in solution (solubility) was 22 µg/mL (≈ 56.8 µM).
On acid ceramidase (setting [2]), `CC(C)CCNC(=O)n1cnc2c(C3CCN(C)CC3)cc(Cl)cc21` [Example 112b] returned an IC50 of 200 to 1000 nM. Further, the solubility in data set [1] worked out at 20 µg/mL (≈ 55.1 µM).
Compound `CCOc1nc2ccc(N3CCOCC3)cc2n1C(=O)NCCCc1ccccc1` [Example 189b, 2-ethoxy-6-morpholino-N-(3-phenylpropyl)-1H-benzo[d]imidazole-1-carboxamide] returned an IC50 on acid ceramidase (pH 4.5) of under 200 nM. In addition, the concentration in solution in data set [1] (solubility) came to 3 µg/mL (≈ 7.34 µM).
On to `O=C(NCCCOc1ccccc1)n1cnc2ccccc21` [Example 43, N-(3-Phenoxypropyl)-1H-benzo[d]imidazole-1-carboxamide], for which the IC50 against acid ceramidase (setting [2]) was under 200 nM. For the same compound, the solubility in data set [1] stood at 3.5 µg/mL (≈ 11.9 µM).
`COc1nc2cc(N3CCOCC3)ccc2n1C(=O)NCCC1CC1C(F)(F)F` (stereo not shown) [Example 230b, 2-methoxy-5-morpholino-N-(2-(2-(trifluoromethyl)cyclopropyl)-ethyl)-1H-benzo[d]imidazole-1-carboxamide] displayed an IC50 against acid ceramidase (pH 4.5) of 200 to 1000 nM. The concentration in solution in data set [1] (solubility) was 32 µg/mL (≈ 77.6 µM).
`COc1nc2cc(-c3cncnc3)ccc2n1C(=O)NCCc1ccccc1` [Example 31b, 2-methoxy-N-phenethyl-5-(pyrimidin-5-yl)-1H-benzo[d]imidazole-1-carboxamide] displayed an IC50 on acid ceramidase (setting [2]) of under 200 nM. The same compound came in with a solubility in data set [1] of 8.6 µg/mL (≈ 23 µM).
The matching figures for `CN1CCC(c2ccc3c(c2)ncn3C(=O)NCCc2ccccc2)CC1` [Example 4, 5-(1-Methylpiperidin-4-yl)-N-phenethyl-1H-bezo[d]imidazole-1-carboxamide]: under 200 nM and 20.6 µg/mL (≈ 56.8 µM).
`O=C(NCCCc1ccccc1)n1cnc2c(N3CC(C(F)(F)F)C3)cccc21` [Example 273, N-(3-Phenylpropyl)-4-(3-(trifluoromethyl)azetidin-1-yl)-1H-benzo[d]imidazole-1-carboxamide]: on acid ceramidase (pH 4.5), the IC50 was under 200 nM. The same compound returned a solubility in data set [1] of 0.2 µg/mL (≈ 0.497 µM).
`COc1cc2ncn(C(=O)NCC(C)C)c2cc1-c1cncnc1` [Example 79b, N-iso-butyl-5-methoxy-6-(pyrimidin-5-yl)-1H-benzo[d]imidazole-1-carboxamide]: the IC50 against acid ceramidase (setting [2]) was under 200 nM. In data set [1], the solubility stood at 26.5 µg/mL (≈ 81.4 µM).
`CNC1CN(c2cccc3c2ncn3C(=O)NCCOc2ccccc2)C1` [Example 354, 4-(3-(Methylamino)azetidin-1-yl)-N-(2-phenoxyethyl)-1H-benzo[d]imidazole-1-carboxamide] registered an IC50 against acid ceramidase (setting [2]) of over 1000 nM. The amount in solution in data set [1] (solubility) came to 19 µg/mL (≈ 52 µM).
On acid ceramidase (setting [2]), `CCCCNC(=O)n1cnc2c(C3CCN(C)CC3)cc(C(F)(F)F)cc21` [Example 57, N-Butyl-4-(1-methylpiperidin-4-yl)-6-(trifluoromethyl)-1H-benzo[d]imidazole-1-carboxamide] came in with an IC50 of under 200 nM. The compound further showed a solubility in data set [1] of 24.1 µg/mL (≈ 63 µM).
The matching figures for `CN1CCN(c2cccc3c2ncn3C(=O)NCc2ccc3c(c2)OCCO3)CC1` [Example 365, N-((2,3-Dihydrobenzo[b][1,4]dioxin-6-yl)methyl)-4-(4-methylpiperazin-1-yl)-1H-benzo[d]imidazole-1-carboxamide]: under 200 nM and 11 µg/mL (≈ 27 µM).
For `C[C@@H](CCNC(=O)n1cnc2c(N3CCN(C)CC3)cccc21)c1ccccc1` [Example 253a, (S)-4-(4-Methylpiperazin-1-yl)-N-(3-phenylbutyl)-1H-benzo[d]imidazole-1-carboxamide], the IC50 against acid ceramidase (pH 4.5) was under 200 nM. The concentration in solution in data set [1] (solubility) was 26 µg/mL (≈ 66.4 µM).
On the same counts, the results for `O=C(NCCC1CCC(F)(F)C1)n1cnc2c(N3CCN4CCCC4C3)cccc21` (stereo not shown) [Example 290, N-(2-(3,3-Difluorocyclopentyl)ethyl)-4-(hexahydropyrrolo[1,2-a]pyrazin-2(1H)-yl)-1H-benzo[d]imidazole-1-carboxamide] are 200 to 1000 nM and 28 µg/mL (≈ 67.1 µM).
For `CN1CCC2CCN(c3cccc4c3ncn4C(=O)NCCCc3ccccc3)CC21` (stereo not shown) [Example 271, 4-(1-Methyloctahydro-6H-pyrrolo[2,3-c]pyridin-6-yl)-N-(3-phenylpropyl)-1H-benzo[d]imidazole-1-carboxamide], on acid ceramidase (pH 4.5), the half-inhibitory concentration (IC50) was under 200 nM. This compound returned a solubility in data set [1] of 22 µg/mL (≈ 52.7 µM).
The compound `CN1CCC(c2cccc3c2ncn3C(=O)NCCCc2ccccc2)C1` (stereo not shown) [Example 267, 4-(1-Methylpyrrolidin-3-yl)-N-(3-phenylpropyl)-1H-benzo[d]imidazole-1-carboxamide] displayed a half-inhibitory concentration (IC50) at acid ceramidase (pH 4.5) of under 200 nM. Besides, the solubility in data set [1] was found to be 25 µg/mL (≈ 69 µM).
Compound `CCCCNC(=O)n1cnc2ccc(N3CCC(N4CCN(C)CC4)CC3)cc21` [Example 102a, N-Butyl-6-(4-(4-methylpiperazin-1-yl)piperidin-1-yl)-1H-benzo[d]imidazole-1-carboxamide] came in with an IC50 against acid ceramidase (setting [2]) of under 200 nM. The solubility in data set [1] came to 34.8 µg/mL (≈ 87.3 µM).
At acid ceramidase (setting [2]), `COc1nc2cc(-c3cncnc3)ccc2n1C(=O)NC1CCCCC1` [Example 111b, N-cyclohexyl-2-methoxy-5-(pyrimidin-5-yl)-1H-benzo[d]imidazole-1-carboxamide] displayed an IC50 of under 200 nM. The solubility in data set [1] came to 22 µg/mL (≈ 62.6 µM).
At acid ceramidase (pH 4.5), `CC(C)CCNC(=O)n1cnc2c(N3CCOCC3)cc(C#N)cc21` [Example 179, 6-Cyano-N-iso-pentyl-4-morpholino-1H-benzo[d]imidazole-1-carboxamide] registered an IC50 of under 200 nM. For the same compound, the concentration in solution in data set [1] (solubility) was 10 µg/mL (≈ 29.3 µM).
`CN1C2CCC1CN(c1cccc3c1ncn3C(=O)NCCC1CCC(F)(F)C1)C2` (stereo not shown) [Example 289, N-(2-(3,3-Difluorocyclopentyl)ethyl)-4-(8-methyl-3,8-diazabicyclo[3.2.1]octan-3-yl)-1H-benzo[d]imidazole-1-carboxamide] had an IC50 on acid ceramidase (pH 4.5) of 200 to 1000 nM. Further, in data set [1], the concentration in solution (solubility) came to 39 µg/mL (≈ 93.4 µM).
In the case of `CC(C)CCNC(=O)n1cnc2c(N3CCN(C)C4(CC4)C3)cccc21` [Example 157, N-iso-Pentyl-4-(4-methyl-4,7-diazaspiro[2.5]-octan-7-yl)-1H-benzo[d]imidazole-1-carboxamide], the half-inhibitory concentration (IC50) at acid ceramidase (setting [2]) fell in the range of 200 to 1000 nM. In data set [1], this compound showed a solubility of 27 µg/mL (≈ 76 µM).
`CN1CCC(c2cccc3c2ncn3C(=O)NCCc2ccccc2)CC1` [Example 12, 4-(1-Methylpiperidin-4-yl)-N-phenethyl-1H-benzo[d]imidazole-1-carboxamide] displayed an IC50 against acid ceramidase (setting [2]) of under 200 nM. This compound had a solubility in data set [1] of 30.5 µg/mL (≈ 84.1 µM).
With `CN1CCN(c2cccc3c2ncn3C(=O)NCCCc2ccccc2)CC1CF` (stereo not shown) [Example 277, 4-(3-(Fluoromethyl)-4-methylpiperazin-1-yl)-N-(3-phenylpropyl)-1H-benzo[d]imidazole-1-carboxamide], the IC50 against acid ceramidase (pH 4.5) was under 200 nM. In data set [1], this compound gave a solubility of 18 µg/mL (≈ 44 µM).
For `CC(C)CCNC(=O)n1cnc2ccccc21` [Example 107, N-iso-Pentyl-1H-benzo[d]imidazole-1-carboxamide], the IC50 on acid ceramidase (setting [2]) is under 200 nM. Further, in data set [1], the solubility came out at 13.9 µg/mL (≈ 60.1 µM).
On the same counts, the results for `COc1c(-c2cncnc2)ccc2c1ncn2C(=O)NCC(C)C` [Example 75, N-isoButyl-4-methoxy-5-(pyrimidin-5-yl)-1H-benzo[d]imidazole-1-carboxamide] are 200 to 1000 nM and 27 µg/mL (≈ 83 µM).
With `CN1CC2CCC1CN2c1cccc2c1ncn2C(=O)NCCCc1ccccc1` (stereo not shown) [Example 247, 4-(5-Methyl-2,5-diazabicyclo[2.2.2]octan-2-yl)-N-(3-phenylpropyl)-1H-benzo[d]imidazole-1-carboxamide], on acid ceramidase (pH 4.5), the IC50 was under 200 nM. This compound yielded a solubility in data set [1] of 28 µg/mL (≈ 69.4 µM).
`COc1nc2c(N3CCOCC3)cncc2n1C(=O)NCCC(C)C` [Example 211, N-iso-Pentyl-2-methoxy-7-morpholino-3H-imidazo[4,5-c]pyridine-3-carboxamide] came in with an IC50 on acid ceramidase (pH 4.5) of under 200 nM. In data set [1], this compound displayed a solubility of 26 µg/mL (≈ 74.8 µM).
The matching figures for `COc1nc2ccc(N3CCOCC3)cc2n1C(=O)NCCC1CC1C(F)(F)F` (stereo not shown) [Example 230a, 2-Methoxy-6-morpholino-N-(2-(2-(trifluoromethyl)cyclopropyl)ethyl)-1H-benzo[d]imidazole-1-carboxamide]: 200 to 1000 nM and 26 µg/mL (≈ 63 µM).
For `CC(C)C#CCNC(=O)n1cnc2c(N3CC4CC3CN4C)cccc21` (stereo not shown) [Example 301, 4-(5-Methyl-2,5-diazabicyclo[2.2.1]heptan-2-yl)-N-(4-methylpent-2-ynyl)-1H-benzo[d]imidazole-1-carboxamide], the IC50 against acid ceramidase (pH 4.5) lay in the range of 200 to 1000 nM. Moreover, in data set [1], the solubility was 34 µg/mL (≈ 96.7 µM).

As usually defined, the IC50 is the concentration that gives 50% inhibition. A higher IC50 goes with a need for much substance. Broadly, the solubility is how much of the substance goes into solution per volume.
